Measured values taken from patent publication US9902761B2, “Polypeptides, nucleic acids and uses thereof” (AGENCY FOR SCIENCE, TECHNOLOGY AND RESEARCH, priority 2013, dated 2018).
Substitutions are numbered along the chain they refer to.

How the values were obtained:
[1] = system: ELA processing and secretion; test: Xenopus secretion assay of human ELA; assay type: cell-based, Xenopus laevis; settings: increasing amounts of inhibitor
Description: ZFNs were purchased from Sigma-Aldrich. […] of mRNAs encoding the ZFN pair were injected into 1-cell stage embryos. ZFN binding sites within exon 1 are as follows: 5′_[…]_3′ (SEQ ID NO: 133) and 5′_[…] 3′ (SEQ 1D NO: 134). Sequencing primers flanking the mutation sites are: forward 5′_[…]_3′ (SEQ ID NO: 135), reverse 5′_[…] 3′ (SEQ ID NO: 136). For ela overexpression, 200 pg of SP6-transcribed zebrafish ela capped mRNA (Applied Biosystems) was injected into 1-cell stage zebrafish embryos. Translation blocking MOs used for aplnra and aplnrb have been described previously (Scott et al., 2007; Zeng et al., 2007) and were purchased from Gene tools (Oregon, USA). Embryos were injected at 1-cell stage with a combination of 1 ng of aplnra MO and 0.5 ng of apinrb MO (Zeng et al., 2007). Information on probes used for q-PCR and WISH can be found in Tables E1 and E2. Zebrafish embryos at 100% epiboly were dechorionated and processed for western blotting as previously described (Link et al., 2006). For the Xenopus secretion assay, 16 ng of SP6-transcribed human ELA capped mRNA (Applied Biosystems) was injected into each cell of 4-cell stage embryos. At stage 8, embryos were dechorionated and dissociated in CMFM medium with 5 mM EDTA. […]

hESCs [2] = test: survival of hESCs after single-cell dissociation (anoikis); assay type: cell-based, human; settings: with or without Y-27632
Description: (§1) hESCs were dissociated into single cells using Accutase (Stem Cell Technologies) and plated in the presence of 10 μM Y-27632 (ROCK inhibitor) for 12 hours (Watanabe et al., 2007).

aplnrb^grinch (W90L) = target: T1, aplnrb^grinch (W90L) (Danio rerio, UniProt A0T2N3, W90L); test: AP-ELA binding assay, 293T cells overexpressing receptor; settings: 293T overexpression
T1 sequence (A0T2N3 1-359 W90L): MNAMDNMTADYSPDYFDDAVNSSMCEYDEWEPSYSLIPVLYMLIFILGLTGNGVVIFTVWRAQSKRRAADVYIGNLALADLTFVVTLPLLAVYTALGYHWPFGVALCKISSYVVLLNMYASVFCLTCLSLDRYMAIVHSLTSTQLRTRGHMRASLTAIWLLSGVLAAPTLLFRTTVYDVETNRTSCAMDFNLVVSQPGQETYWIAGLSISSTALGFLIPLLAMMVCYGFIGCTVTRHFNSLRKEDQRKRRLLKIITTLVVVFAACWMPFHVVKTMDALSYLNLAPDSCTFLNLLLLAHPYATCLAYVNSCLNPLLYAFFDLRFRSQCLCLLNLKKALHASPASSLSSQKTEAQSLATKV

zebrafish aplnrb = target: T2, zebrafish aplnrb (Danio rerio, UniProt A0T2N3); test: as above; settings: HEK293T overexpression
T2 sequence (A0T2N3 1-359): T1 sequence (A0T2N3 1-359 W90L) with L90W

hESCs [3] = test: AP-ELA cell surface binding assay on hESCs; parameters: species or system human; settings: undifferentiated hESCs
zebrafish aplnra = target: T3, zebrafish aplnra (Danio rerio, UniProt Q7SZP9); test: AP-ELA binding assay, 293T cells overexpressing receptor; settings: HEK293T overexpression
T3 sequence (Q7SZP9 1-362): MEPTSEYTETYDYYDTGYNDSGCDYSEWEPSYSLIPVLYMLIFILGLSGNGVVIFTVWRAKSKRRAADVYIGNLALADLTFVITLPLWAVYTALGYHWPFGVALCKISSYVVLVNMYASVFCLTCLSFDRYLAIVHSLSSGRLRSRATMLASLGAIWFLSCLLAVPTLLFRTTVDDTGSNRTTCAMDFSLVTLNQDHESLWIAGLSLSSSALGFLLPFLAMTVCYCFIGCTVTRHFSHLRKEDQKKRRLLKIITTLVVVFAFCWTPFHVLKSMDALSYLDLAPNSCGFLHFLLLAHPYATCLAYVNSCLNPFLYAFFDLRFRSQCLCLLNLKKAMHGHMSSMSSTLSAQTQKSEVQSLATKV

hESCs [4] = assay type: cell-based, human; settings: data not shown
ELA = target: T4, ELA (Homo sapiens, UniProt P0DMC3); test: extracellular neutralizing assay with affinity purified anti-ELA antibodies in hESC culture; assay type: cell-based; settings: peptide added with α N antibodies
T4 construct: ELA is an endogenous secreted peptide that is essential for the survival and self-renewal of hESCs; endogenous in cells; host or cells: hESCs (Shef4 / Shef4TetR5)
T4 sequence (P0DMC3 23-54): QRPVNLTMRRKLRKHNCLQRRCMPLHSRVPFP

hESCs [5] = test: insulin replacement assay in hESCs; assay type: cell-based, human; settings: SHEF4 and HESC3 hESCs, 24 hours of growth without INSULIN
Description: For insulin replacement assays, SHEF4 or HESC3 hESCs were cultured in TSER-E5 (Stem Cell Technologies) supplemented with TGF-β (5 ng/ml, R&D Systems) and bFGF (100 ng/ml, Invitrogen) with and without INSULIN (10 ug/ml, SIGMA).

hESCs [6] = test: xCELLigence real time growth assay, cell counts and colony size of hESCs; assay type: cell-based, human
Description: Feeder-free hESCs were cultured in clumps in mTSER1 (Stem Cell Technologies) on Matrigel (BD 354277).
as §1
For xCELLigence real time growth assays, 4000 cells were plated per well of an E-plate (ACEA Biosciences) with media changes every 48 hours.
Recombinant ELA was added at 2.5 uM (or 10 μg/ml). Cell cycle studies were performed with Click-iT EDU staining kit (Invitrogen) and by performing a double thymidine block (2.5 mM thymidine; 16 hour block, 8 hour release, 16 hour block) followed by DAPI staining for DNA content at the indicated times following release.

PI3K/AKT pathway = test: signaling pathway assay in starved hESCs pulsed with peptide (SDS-PAGE, western); assay type: cell-based, human; settings: 5 uM peptide after 2-hour starvation
Description: To assay the signaling pathway activated by ELA, hESCs were dissociated and plated in mTSER1 for 48 hours, followed by a 2-hour starvation in DMEM/F12. Synthetically produced ELA or ELA^RR>GG peptides, dialyzed against PBS to remove any residual synthesis buffers, were added at a final concentration of 5 uM (or as indicate(D) for the indicated period of time. Where applicable, PI3K inhibitors LY294002 (5 uM) and Wortmannin (1 uM) were added 30 minutes before pulsing with ELA peptides. Cells were lysed with PhosphoSafe™ (Millipore) for SDS-PAGE.

hESCs [7] = test: stress-induced apoptosis of hESCs by ActinomycinD; assay type: cell-based, human; settings: for resistance or sensitivity to ActinomycinD: nanomolar concentrations of ActinomycinD
Description: To induce apoptosis, hESCs were treated with the indicated doses of ActinomycinD (Sigma) or ionizing radiation followed by Aqueous One Cell Titer (Promega) or CASPASE GLO3/7 (Promega) assays 12 hours post-treatment.

[8] = teratoma analysis after subcutaneous injection of hESCs; assay type: in vivo, SCID mice; settings: 10 million cells subcutaneously, day 60
Description: Shef4TetR5-shELA cells were cultured in the presence (shELA) or absence (Control) of 20 ng/ml doxycycline for 3 passages (4 days/passage). Cells were harvested with Accutase (Stemcell Technologies) and resuspended in 1 part Matrigel to 2 parts mTSERL. 10 million cells in 200 μl were injected subcutaneously into the right hind paunches of SCID mice. shELA-injected mice were fed doxycycline (20 μg/ml) for 3 weeks following injection. Mice were sacrificed 60 days post-injection for tumor analysis.

hESCs [9] = test: qPCR of mesendodermal markers in hESCs; assay type: cell-based, human
Description: After the indicated time periods, embryoid bodies were harvested and RNA extracted using RNeasy kit ([…]). qPCR reactions were carried out using either Universal FastSlart SYBR Green Mastermix (Roche) or using the Universal Probe Library system (Roche) in tandem with Taqman Fast Mastermix (Invitrogen). Primer sequences can be found in Table E1.

hESCs [10] = test: protein synthesis by incorporation of fluorescently-labeled amino acids; assay type: cell-based, human
hESCs [11] = test: stress-induced apoptosis of hESCs by ionizing radiation; assay type: cell-based, human
hESCs [12] = test: directed endoderm differentiation of hESCs, SOX17+ cell count; assay type: cell-based, human
Description: Shef4TetR5-shELA and Shef4TetR5-shβ2M cells were cultured in the presence (shELA and shβ2M respectively) or absence (Control) of 20 ng/ml doxycycline for 1 passage (4 days) and dissociated with Accutase. […] 24 hours later, the media was changed to Endo differentiation media 1 [RPMI 1640 (Gibco), 1× B-27 supplement (Invitrogen), 50 ng/ml of Activin A (R&D Systems), 25 ng/ml BMP4 (R&D Systems) and 50 ng/ml bFGF (Invitrogen)] for 3 days. On day 3, the media was changed to Endo differentiation media 2 (RPMI 1640, B27, 50 ng/ml Activin) for 2 more days of culture. Rescue experiments were performed by adding 2.5 uM of ELA peptide to Shef4TetR5-shELA concurrently with doxycycline up to day 3, when the ELA peptide is no longer necessary as judged by downregulation of endogenous ELA.
On day 5, cells were fixed with 4% paraformaldehyde and stained with α SOX17 (AF1924, R&D Systems) and DAPI. For each well, three different randomly selected fields were imaged and the number of nuclei staining positive of SOXI 7 and DAPI were counted using a custom macro in ImageJ. A minimum of two wells per condition was used for each experiment, and a minimum of two independent experiments were performed to generate the results.

hESCs [13] = test: stress-induced apoptosis of hESCs by ActinomycinD; assay type: cell-based, human
hESCs [14] = test: pluripotency markers and colony morphology of knockdown hESCs; assay type: cell-based, human; settings: prolonged depletion
Description: To generate stable inducible knockdown of ELA in hESCs, the sequence […] (SEQ ID NO: 132) targeting the 3′UTR of ELA was cloned into pSUPERIOR (Oliogoengine) and nulcleofected (Lonza) into Shef4TetR5 hESCs (Zafarana et al., 2009). Neomycin-resistant cells were clonally expanded and assayed for doxycycline (20 ng/ml)-inducible knockdown. Data from one representative clone (ShefTetR5 shELA) are shown in this paper. Shef4TetR5 shβ2M were derived as previously described (Zafarana et al., 2009). Unless otherwise stated, ELA knockdown was induced on Day −4 with 20 ng/ml doxycycline to generate shELA cells.

C[C@H]1CCC/C=C/[C@@H]2C[C@H](O)C[C@H]2[C@H](O)/C=C/C(=O)O1 [Brefeldin A]
ELA processing and secretion [1]: able to block ELA processing and secretion

C[C@@H](N)[C@H]1CC[C@H](C(=O)Nc2ccncc2)CC1 [ROCK inhibitor, Y-27632, reference compound]
survival following dissociation (anoikis) (hESCs [2]): protects against anoikis

AP-ELA: mature C-terminal 32-mer of ELA cloned in frame with alkaline phosphatase, secreted from 293T cells
binding of AP-ELA to aplnrb^grinch (aplnrb^grinch (W90L)): unable to bind AP-ELA | cell-surface binding of AP-ELA to aplnrb (zebrafish aplnrb): sufficient to afford cell-surface binding | binding of AP-ELA to hESCs (hESCs [3]): readily bind | cell-surface binding of AP-ELA to aplnra (zebrafish aplnra): sufficient to afford cell-surface binding

APELIN-13
effect on hESCs (hESCs [4]): no effect on hESCs

ELA^RR>GG: doubly mutated ELA mutant peptide (R31G, R32G), non-signaling (QRPVNLTMGGKLRKHNCLQRRCMPLHSRVPFP)
competition of the neutralizing activity of the antibody by peptide (ELA): competed out | rescue in cell viability in the absence of INSULIN (hESCs [5]): exerted no effects | growth of hESCs relative to untreated cells (hESCs [6]; cell counts, colony size, real-time cell indices, peptide 2.5 uM (10 μg/ml)): without effect | phosphorylation of AKT at serine 473 and PRAS40 at threonine 246 (PI3K/AKT pathway): not observed | resistance or sensitivity to ActinomycinD (hESCs [7]): no protective effect

GTGATTCTCGTGCCTCAAC (expressed or natural sequence) [shELA, doxycycline-inducible shRNA targeting the 3′UTR of ELA in Shef4TetR5 hESCs]
teratoma formation [8]: did not form teratomas | expression of mesendodermal genes GATA6, GATA4, FOXA2, EOMES and BRA (hESCs [9]): conversely downregulated | protein synthesis (hESCs [10]): reduced protein synthesis | survival following dissociation (anoikis) (hESCs [2]): do not survive single-cell dissociation | sensitivity to gamma irradiation relative to control (hESCs [11]): twice as sensitive | activated CASPASE 3 after irradiation (hESCs [11]; 3 hours after 1 Gray of γ irradiation): higher levels of activated CASPASE 3 | growth rates of knockdown hESCs seeded as single cells (hESCs [6]; real-time cell index, compared to control and shβ2M hESCs): markedly reduced growth rates | colony size of knockdown hESCs (hESCs [6]; relative to shβ2M hESCs): less than half the size | reduction over control in the number of SOX17+ cells (hESCs [12]; 5 days directed differentiation, FIG. 6F): 45% | reduction of SOX17 expression (hESCs [12]; directed differentiation, control, shELA and shβ2M, FIG. 13C): 35% | levels of MCL-1 (hESCs [13]): lower levels | BAX localisation (hESCs [13]; mitochondria versus cytoplasm): higher levels of BAX in the mitochondria | pluripotency markers POU5F1, NANOG, SSEA3 and TRA-1-60 (hESCs [14]): downregulation of pluripotency markers | activated CASPASE3/7 and CASPASE 9 after ActinomycinD (hESCs [7]): increased levels of activated CASPASE3/7 | resistance or sensitivity to ActinomycinD (hESCs [7]): more sensitive compared to control
